Legend:
Assay type in all cases: in vivo, human
kleptomania = test: Example 3: case report, treatment of kleptomania (K-SAS, stealing behavior); details: one patient
Text: Patient was a married, college-educated person with no children. They presented for psychiatric evaluation for “out-of-control” shoplifting that had been going on since early adulthood. Although never arrested for their shoplifting, they reported stealing approximately 90% of the times when they went shopping. […] They denied wanting or needing the items and in fact usually discarded them in the trash when they returned home. They reported that when they initially stole items in early adulthood the act gave them a “rush” or a thrill. Over the years, they described the behavior as “automatic” and without awareness for the consequences.
The diagnosis of kleptomania was confirmed using the Structured Clinical Interview for Kleptomania. Patient also underwent a comprehensive psychiatric evaluation using the Structured Clinical Interview for DSM-IV (SCID-I and SCID-II). […] Severity of kleptomania was assessed using the Kleptomania Symptom Assessment Scale (K-SAS) at baseline and periodically through […] follow-up. The K-SAS score at baseline was 28 (moderate severity).
(§1) Over a period of two years, patient underwent serial trials of several medications. […] “I have gone to stores several times without stealing anything.” After 6 weeks, the benefit seemed to wane and their dose was increased to 100 mg po bid. […] They have been maintained on that dose for 5 months without stealing. They report mild urges to steal when in a store but feels able to control their behavior. Patient's K-SAS score has consistently been 6-8 over the last few months.

pathological gambling [1] = test: Example 2: tolcapone study in pathological gambling, primary and secondary measures
Text: The effectiveness of COMT inhibitors to treat PG can be determined using known assessments, e.g., the Clinical Global Impression Scale (CGI), Yale Brown Obsessive Compulsive Scale Modified for Pathological Gambling (PG-YBOCS), the Gambling Symptom Assessment Scale (G-SAS), the Sheehan Disability Scale (SDS), the Hamilton Anxiety Rating Scale (HAM-A), the Hamilton Depression Rating Scale (HAM-D), the Perceived Stress Scale (PSS; used at baseline and study endpoint), and the Quality of Life Inventory (QOLI; used at baseline and study endpoint). In Example 2, twelve subjects have been enrolled with four of these individuals currently receiving tolcapone and yet to complete the study. […] In most open-label studies of pathological gambling, response rates are approximately 60-65%. Decrease in gambling symptoms was from a mean of 20.4 to 9.25 at endpoint using the PG-YBOCS. This compares to a mean decrease of 6 points on this same scale when used in treatment studies involving other medications.

[2] = Example 3: laboratory testing of liver aminotransferases every two weeks; details: one patient
Description: as §1

pathological gambling [3] = test: Example 1 / Tolcapone Study: cognitive tasks (IED set shift, SST) before and after treatment
Text: (§2) The cognitive tasks require subjects to disengage responding from the previously correct dimension in favor of responding to a novel dimension. Failure on the task may be due to the inability of the individual to disengage from a previously rewarding process thus perseverating on the incorrect response pattern.

[4] = test system: attention deficit disorder (ADD); test: Example 4: case report, treatment of ADD; details: one patient
Description: Patient was a married, person, currently in nursing school. They have had life-long difficulties with organizing tasks, following through on instructions and completing tasks. Learning in classes and performing school work has been extremely difficult. Patient would tell each and every teacher that they have attention deficit disorder (ADD), they are slow to understand and that they need more time to complete examinations. Patient has been taking methylphenidate ([…]) 10 mg twice a day to cope with these difficulties. […] Patient said “I was able to answer 12 out of 12 questions, that was the first time for me.” After one week, patient increased tolcapone does to 100 mg twice a day. […] They found themself organizing future tasks in orderly manner and also completing the tasks mush more efficiently, something they just have not been able to do prior to now. Their spouse noticed this and commented this to them. […] Patient is much satisfied with the results of the tolcapone treatment. Follow-up interview two weeks post tolcapone 100 mg twice a day: “I got over my classes at 3:[…]/ I stayed '[…] just fired off this assignment. I met all objectives. I got 15 out of 15 points. This has never happened to me before. Prior to tolcapone, I would scramble, hodge-podge, . . . I would just give up. The whole thing is getting better and better. I feel that I can organize things better now.” “Look what my teacher wrote, 'very well organized'.” 30 out of 30, 27 out of 27 points! “I never got these assignments done. I can't explain it but this is phenomenal.” “I am sleeping better now, my anxiety has gone down, I have more energy now.” This is a patient who had been on methylphenidate 10 mg twice a day.

pathological gambling [5] = test: Example 1: open-label tolcapone study in pathological gambling (PG-YBOCS)
Text: The effectiveness of COMT inhibitors to treat PG can be determined using known assessments, e.g., the Clinical Global Impression Scale (CGI), Yale Brown Obsessive Compulsive Scale Modified for Pathological Gambling (PG-YBOCS), the Gambling Symptom Assessment Scale (G-SAS), the Sheehan Disability Scale (SDS), the Hamilton Anxiety Rating Scale (HAM-A), the Hamilton Depression Rating Scale (HAM-D), the Perceived Stress Scale (PSS; used at baseline and study endpoint), and the Quality of Life Inventory (QOLI; used at baseline and study endpoint). In example 1, six subjects have been enrolled in a study to determine the effects of administration of the COMT inhibitor tolcapone on gambling. Subjects receive 100 mg-300 mg of tolcapone by mouth per day for 8 weeks, which can be administered either once per day for the 100 mg dose, or multiple (e.g., 3) times per day for higher doses (e.g., 300 mg dose). Five of the 6 (83%) subjects have “responded” (i.e., greater than 35% on the primary outcome measure, the PG-YBOCS) to tolcapone. In most open-label studies of pathological gambling, response rates are approximately 65%. Decrease in gambling symptoms was from a mean of 20.4 to 8.0 at endpoint using the PG-YBOCS. This compares to a mean decrease of 6 points on this same scale when used in treatment studies involving other medications. The mean effective dose was 140 mg/day.

pathological gambling [6] = test: Example 2: performance on cognitive tasks (IDED, SST) in pathological gamblers treated with tolcapone
Text: as §2, with “on the ED task may” for “on the task may”

[7] = test system: nicotine dependent problem gambling subjects; test: Change in cigarette smoking in nicotine dependent problem gambling subjects taking tolcapone; details: 10-Week Endpoint (n = 6); baseline 25.8 ± 11.1

Structure (SMILES): CC1(C)O[C@@H]2[C@@H](CO[C@@]3(COS(N)(=O)=O)OC(C)(C)O[C@@H]23)O1 [Topiramate, topiramate]
- K-SAS score (urges to steal) (kleptomania; monotherapy, 12 weeks at 150 mg/day, baseline 28): 21

Structure (SMILES): Cc1ccc(C(=O)c2cc(O)c(O)c([N+](=O)[O-])c2)cc1 [tolcapone]
- mean effective dose (pathological gambling [1]; Example 2, pathological gambling, compared to 600 mg/day used for Parkinson's): 141 mg/day
- PG-YBOCS mean at endpoint (decrease in gambling symptoms) (pathological gambling [1]; Example 2, from a baseline mean of 20.4): 9.25
- subjects who responded (greater than 35% on the primary outcome measure, the PG-YBOCS) (pathological gambling [1]; Example 2, seven of 8 subjects who have completed the study): 87.5%
- CGI-Improvement (Investigator), mean (SD) at endpoint (pathological gambling [1]; endpoint): 1.88 (0.83)
- CGI-Improvement (Patient), mean (SD) at endpoint (pathological gambling [1]; endpoint): 2.19 (1.13)
- Clinical Global Impression Severity, mean (SD) at endpoint (pathological gambling [1]; endpoint, baseline 4.38 (0.74), p-value 0.0098): 3 (1.07)
- HAM-A, mean (SD) at endpoint (pathological gambling [1]; endpoint, baseline 8.88 (3.14), p-value 0.052): 5.63 (2.97)
- HAM-D, mean (SD) at endpoint (pathological gambling [1]; endpoint, baseline 9 (2.67), p-value 0.033): 5.63 (3.02)
- PG-YBOCS behavior Subscale score, mean (SD) at endpoint (pathological gambling [1]; endpoint, baseline 9.63 (3.2), p-value 0.0003): 3.63 (3.96)
- PG-YBOCS urges/thought subscale score, mean (SD) at endpoint (pathological gambling [1]; endpoint, baseline 10.88 (2.23), p-value 0.0003): 5.38 (2.33)
- Sheehan Disability Scale total score, mean (SD) at endpoint (pathological gambling [1]; endpoint, baseline 16.75 (6.84), p-value 0.003): 5.38 (5.90)
- PG-YBOCS total score, mean (SD) at endpoint (pathological gambling [1]; endpoint, baseline 20.5 (3.38), p-value 0.0002): 9.25 (5.3)
- G-SAS total score, mean (SD) at endpoint (pathological gambling [1]; endpoint, baseline 27.13 (7.54), p-value 0.045): 18.63 (7.91)
- changes in alanine aminotransferase or aspartate aminotranferase [2]: no changes
- IED Total errors (stage 6), ID shift, Mean ± SD at EOS (pathological gambling [3]; EOS, baseline 0.5 ± 1): 0 ± 0
- SST Direction errors on stop and go trials, Mean ± SD at EOS (pathological gambling [3]; EOS, baseline 2.75 ± 4.27): 6.5 ± 11.03
- IED Total errors (stage 8), ED shift, Mean ± SD at EOS (pathological gambling [3]; EOS, baseline 6.75 ± 5.91): 3.5 ± 4.51
- IED Stages completed, Mean ± SD at EOS (pathological gambling [3]; EOS, baseline 9 ± 0): 9 ± 0
- IED Total errors (adjusted), Mean ± SD at EOS (pathological gambling [3]; EOS, baseline 12.75 ± 6.5): 17 ± 7.16
- IED Total errors, Mean ± SD at EOS (pathological gambling [3]; EOS, baseline 12.75 ± 6.5): 17 ± 7.16
- SST Median correct RT on GO trials, Mean ± SD at EOS (pathological gambling [3]; EOS, baseline 530.5 ± 132.91): 529 ± 155.66
- extradimensional set shift task (cognitive measures) (pathological gambling [3]; Example 1): significant improvement
- ADD symptoms reported by the patient ([4]; 100 mg in the morning, added to methylphenidate 10 mg twice a day): improved sense of well-being
- ADD symptoms reported by the patient ([4]; 100 mg twice a day): further improvement in their symptoms
- side effects ([4]; 100 mg twice a day): no side effects
- attentional issues, compared with methylphenidate ([4]; chose to stay on tolcapone instead of methylphenidate): works better for their attentional issues
- mean effective dose (pathological gambling [5]; Example 1, pathological gambling): 140 mg/day
- subjects who responded (greater than 35% on the primary outcome measure, the PG-YBOCS) (pathological gambling [5]; Example 1, 100 mg-300 mg per day by mouth for 8 weeks, five of the 6 subjects): 83%
- PG-YBOCS mean at endpoint (decrease in gambling symptoms) (pathological gambling [5]; Example 1, from a baseline mean of 20.4): 8.0
- PG-YBOCS, Mean ± SD at EOS (pathological gambling [5]; whole group analysis, after treatment (EOS), baseline 21.5 + 3.11): 10.25 ± 6.18
- extradimensional set shift task (cognitive measures) (pathological gambling [6]; Example 2, neurocognitive results): significant improvement
- SST directional errors at endpoint (pathological gambling [6]; endpoint, baseline 2 ± 3.07): 4.71 ± 8.24
- IDED Stages completed at endpoint (pathological gambling [6]; endpoint, baseline 8.5 ± 0.92): 8.86 ± 0.38
- IDED total errors (adjusted) at endpoint (pathological gambling [6]; endpoint, baseline 26.38 ± 21.84): 20.14 ± 11.77
- SST SSRT at endpoint (pathological gambling [6]; endpoint, baseline 149.8 ± 41.57): 161.37 ± 29.11
- SST median go reaction time at endpoint (pathological gambling [6]; endpoint, baseline 470.5 ± 111.67, in ms (unit assumed)): 476.64 ± 138.11
- Cigarettes smoked per day (mean ± SD) [7]: 3.3 ± 8.2
- stealing behavior (kleptomania; 100 mg po bid, after 3 weeks on the higher dose, maintained for 5 months without stealing): no stealing behavior
- K-SAS score (kleptomania; 100 mg po bid, over the last few months, baseline 28 (moderate severity)): 6-8
- stealing behavior (kleptomania; 100 mg/day monotherapy, after 3 weeks): significant reductions in stealing behavior

Source: patent US20120010296A1, “TREATING VARIOUS DISORDERS WITH CATECHOL-O-METHYL-TRANSFERASE INHIBITORS” (priority 2009, published 2012)
